One assay relates to Plasmorpara viticola. The experiment in a line: Example I grape downy mildew. The format is in vivo. The settings on record: read-out: disease control rating, Ex. I. The essentials: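 Applied as a foliar spray to run-off on grape seedlings, the compounds were formulated at 100 or 20 ppm in water containing 250 ppm TREM 014, with acetone making up 6% of the volume.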
In a further assay the test system is KOCHIA. Put plainly: Test E. The format is in vivo, Kochia scoparia.
The subject of another assay is LAMBSQUARTER
The experiment in a line: Test E. The format is in vivo, Chenopodium album.

A further assay has as its system Phytophthora infestans. Put plainly: whole plant or invertebrate. The format is in vivo. The note with it: Phytophthora infestans, in Solanum lycopersicum, read-out: disease control rating, Ex. H, 100 PPM.
The test system of another assay is BLACK NIGHTSHAD
Put plainly: Test E. The format is in vivo, Solanum nigrum.

In another assay the test system is Botrytis cinerea. The experiment in a line: Example C bean grey mold. The format is in vivo. The note with it: Botrytis cinerea, 24 h, 100 PPM; read-out: disease control rating, Ex. C. The procedure, abridged: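 Spray rates: 100 and 20 ppm. Vehicle: purified water with 6% acetone by final volume plus 250 ppm TREM 014 (polyhydric alcohol esters). Host plants, broad bean seedlings, were wetted until run-off.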

The test system of assay [1] is Candida albicans ATCC 11651. The experiment in a line: In vitro antifungal MIC, microtiter broth dilution. The settings on record: Candida albicans, ATCC11651, 24 h, read-out: MIC values, C. albicans, 30°, 24 hours. For orientation: In broth dilution the organism is exposed to a series of concentrations in liquid medium.
Protocol: In vitro activity (Table 5) is expressed in terms of the minimal inhibitory concentration (MIC) of the test compound which inhibits the growth of yeasts and fungi.
The target organisms, Candida albicans ATCC 11651 and Aspergillus fumigatus ATCC 28214 are standardized, [V. Bezjak, J. Clinical Micro., 21 509-512 (1984)], to a concentration of 10^7 organisms/ml and maintained at -70° until use. Test compounds are solubilized in dimethyl sulfoxide (DMSO) and diluted in Eagle's Minimum Essential Medium (EMEM) broth to achieve a final concentration of 200 μg/ml. Stock solutions of standard antifungal agents are stored at -70° and diluted in EMEM as required.
The in vitro assay utilizes a microtiter broth dilution technique [L. Polonelli and G. Morace, Mycopathologia, 86, 21-28 (1984)] and C. […] The appropriate wells are inoculated with the required organism (C. albicans at 1×10^4 organisms/ml and A. fumigatus at 5×10^5 organisms/ml) and the assay incubated at 30° for 24 hours.
In the next assay the test system is Puccinia recondita. The experiment in a line: Example G wheat leaf rust. The format is in vivo. The settings on record: 100 PPM, read-out: disease control rating, Ex. G.
Another assay concerns Pythium aphanadermatum. Put plainly: Example J cucumber damping off. The settings on record: Pythium, 336 h; 5 kg/ha; read-out: disease control rating, Ex. J. The format is in vivo. The essentials:
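This cucumber damping-off test used soil and seeds infested with a sand–cereal preparation carrying mycelium of Pythium aphanadermatum. Incubation took place in a growth chamber held at 30° C. for 14 days. Afterwards, the extent of disease was scored as a disease control rating.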

The test system of assay [2] is Cercosporidium personatum. Put plainly: Example B Peanut Late Leafspot. The format is in vivo. The settings on record: Nothopassalora personata; 100 PPM; read-out: disease control rating, Ex. B. The procedure, abridged: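 Spray suspensions at 100 or 20 ppm, prepared from acetone solutions (acetone 6% of final volume) in water carrying 250 ppm of a polyhydric alcohol ester surfactant, were applied to peanut seedlings until run-off.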

For assay [3], the system named is Fusarium oxysporum f. sp. cucumerinum. Put plainly: Example L cucumber wilt. The format is in vivo. The settings on record: 336 h, 5 kg/ha, read-out: disease control rating, Ex. L. On the procedure: […] Seeds and soil were then inoculated with a mixture of sand, cereal and mycelium of the fungus Fusarium oxysporum f. sp. cucumerinum, causal agent of cucumber wilt, and incubated in a growth chamber at 30° C. for 14 days. Disease ratings were then made.

The structures appear in SMILES notation. Values after ≈ are worked out from the molar mass of the structure shown.

By MIC is commonly meant the smallest concentration in the dilution series that meets the test's criterion for growth inhibition.

`C=C(c1ccccc1)C(O)(Cn1cncn1)c1ccc(F)cc1F` (stereo not drawn) [Example 52, 2-(2,4-Difluorophenyl)-3-phenyl-1-(1H-1,2,4-triazol-1-yl)-3-buten-2-ol]: the pest or weed control at 100 ppm with Plasmorpara viticola amounted to 0%; in the assay with Phytophthora infestans it was 0%; in the assay on Botrytis cinerea, 95%; in the assay with Puccinia recondita, 100%; in [2], 100%. Besides, the plant response in the assay with KOCHIA (POSTEMERGENCE 0064 GM/HA) was found to be 0%; with KOCHIA (POSTEMERGENCE 0125 GM/HA), 0%; in the assay on KOCHIA (POSTEMERGENCE 0250 GM/HA), 0%; with KOCHIA (POSTEMERGENCE 0500 GM/HA) it was 70%; in the assay with KOCHIA (PREEMERGENCE 0250 GM/HA), 0%; in the assay with LAMBSQUARTER (POSTEMERGENCE 0064 GM/HA), 0%. The plant response in the assay with LAMBSQUARTER (POSTEMERGENCE 0125 GM/HA) amounted to 0%; in the assay on LAMBSQUARTER (POSTEMERGENCE 0250 GM/HA), 0%; in the assay on LAMBSQUARTER (POSTEMERGENCE 0500 GM/HA) it was 10%; with LAMBSQUARTER (PREEMERGENCE 0250 GM/HA), 100%; in the assay with BLACK NIGHTSHAD (POSTEMERGENCE 0064 GM/HA) it was 0%; in the assay with BLACK NIGHTSHAD (POSTEMERGENCE 0125 GM/HA) it was 0%. For the same molecule, the plant response in the assay on BLACK NIGHTSHAD (POSTEMERGENCE 0250 GM/HA) came to 10%; with BLACK NIGHTSHAD (POSTEMERGENCE 0500 GM/HA), 70%; in the assay on BLACK NIGHTSHAD (PREEMERGENCE 0250 GM/HA) it was 100%. Moreover, in assay [1], the MIC was determined as 0.03 µg/mL (≈ 0.0916 µM). Also, the pest or weed control at 5000 g/ha (in the assay with Pythium aphanadermatum; in assay [3]) was 0% throughout.
Regarding `C=C(c1ccc(F)cc1)C(O)(Cn1cncn1)c1ccccc1F` (stereo not drawn) [Example 644], the pest or weed control at 100 ppm in the assay on Plasmorpara viticola amounted to 0%; in the assay on Phytophthora infestans, 23%; with Botrytis cinerea, 94%; in the assay with Puccinia recondita, 100%; in assay [2] it was 100%. Moreover, the plant response in the assay with KOCHIA (POSTEMERGENCE 0064 GM/HA) is 0%; in the assay with KOCHIA (POSTEMERGENCE 0125 GM/HA), 0%; with KOCHIA (POSTEMERGENCE 0250 GM/HA), 50%; in the assay on KOCHIA (POSTEMERGENCE 0500 GM/HA) it was 70%; in the assay with KOCHIA (PREEMERGENCE 0500 GM/HA) it was 100%; with LAMBSQUARTER (POSTEMERGENCE 0064 GM/HA), 0%. The plant response with LAMBSQUARTER (POSTEMERGENCE 0125 GM/HA) is 0%; in the assay on LAMBSQUARTER (POSTEMERGENCE 0250 GM/HA) it was 20%; with LAMBSQUARTER (POSTEMERGENCE 0500 GM/HA), 40%; in the assay with LAMBSQUARTER (PREEMERGENCE 0500 GM/HA), 85%; with BLACK NIGHTSHAD (POSTEMERGENCE 0064 GM/HA), 0%; with BLACK NIGHTSHAD (POSTEMERGENCE 0125 GM/HA), 0%. In addition, the plant response is on record as 10% in the assay with BLACK NIGHTSHAD (POSTEMERGENCE 0250 GM/HA), 20% with BLACK NIGHTSHAD (POSTEMERGENCE 0500 GM/HA) and 0% with BLACK NIGHTSHAD (PREEMERGENCE 0500 GM/HA). For the same molecule, the minimum inhibitory concentration (MIC) in assay [1] worked out at 0.03 µg/mL (≈ 0.0916 µM). Also, in the assay with Pythium aphanadermatum, the pest or weed control at 5000 g/ha was 0%.

(Values after US4965280A, “Antifungal carbinols” (E. I. Du Pont de Nemours and Company, priority 1989, dated 1990).)
